Reference: US9073856B2, “Phenyl methanesulfonamide derivatives useful as MGAT-2 inhibitors” (Eli Lilly and Company, priority 2012, dated 2015)
Counter-ions that a name gives are not always drawn.

How the values were obtained:
[1] = biological target: T1, human MGAT-2 (Homo sapiens, UniProt Q3SYC2); assay: MGAT-2 Inhibitory Assay (14C-oleoyl-CoA, Microscint E extraction, SF9 cell lysate); type: biochemical; design: made in house; host or cells: Insect SF9 cells (supernatant of homogenate, unpurified); settings: human MGAT-2 expressed in SF9 cells, 90 minutes, room temperature; read-out: IC50 in MGAT-2 in vitro assay
T1 sequence (Q3SYC2 whole entry): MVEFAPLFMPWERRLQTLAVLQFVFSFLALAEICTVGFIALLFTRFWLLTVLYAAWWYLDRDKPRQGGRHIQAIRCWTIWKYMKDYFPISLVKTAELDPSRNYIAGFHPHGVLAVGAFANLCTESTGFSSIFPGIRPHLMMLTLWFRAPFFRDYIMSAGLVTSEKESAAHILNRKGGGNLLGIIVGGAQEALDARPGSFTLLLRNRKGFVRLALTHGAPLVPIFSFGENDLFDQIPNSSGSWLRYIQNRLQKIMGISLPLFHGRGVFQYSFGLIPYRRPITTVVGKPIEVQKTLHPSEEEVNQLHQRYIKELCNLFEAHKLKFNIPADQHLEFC
Experimental: The in vitro inhibitory activity of compounds against human MGAT-2 is evaluated in this assay. MGAT-2 transfers an oleoyl group to monooleoyl-glycerol (“MAG”) from oleoyl-CoA to form dioleoyl-glycerol (“DAG”) in the intestinal triglyceride resynthesis pathway. The assay takes advantage of Microscint E extraction, which extracts hydrophobic molecules selectively over hydrophilic ones to separate the ^14C-oleoyl-CoA from ^14C-DAG.
Insect SF9 cells express human MGAT-2. Prepare the cell lysate in 20 mM of NaCl with protease inhibitor (Roche Cat#11873580001). Homogenize the SF9 cells expressing human MGAT-2 at 15,000 rpm for 20×2 seconds (PT-3100 Polytrone). Centrifuge the homogenate at 1000 g for 10 minutes at 4° C. Collect the supernatant into a separate tube for protein quantification and activity testing. Purify the glycerol monooleate substrate (Spectrum Chemical, CAS#25496-72-4) chromatographically. Prepare the monoacylglyerol (MAG) substrate in phospholipid vescicles (dioleoyl phosphatidylcholine “DOPC”). Prepare the MAG/DOPC vesicles at 20 mM concentration of total lipids (MAG and DOPC). Prepare different molar ratios of MAG to total lipids for either compound screening (8.9%) or compound kinetic studies (2.6-40%). Mix the appropriate amount of purified MAG and DOPC (Avanti Polar Lipids #850375C) in a glass tube under N2 gas and then dry under vacuum for 30 minutes. […]

[2] = tested on: TAG absorption; assay: Dog Oil Bolus Model (plasma TAG after olive oil bolus); type: in vivo; settings: male beagles, olive oil 5 ml/kg
Experimental: Inhibiting MGAT-2 found in the small intestine may be useful for treating hypertriglyceridemia caused by excessive fat intake. To assess the ability of the exemplified compounds to inhibit TAG absorption, twenty one male beagles (n=7 per treatment group) are enrolled for each study each dog selected to have a body weight between 9-13 kg. House the dogs in cages with a standard light cycle (12 hours light and 12 hours dark); at room temperature: 72±8° F.; and at 30%-70% relative humidity. Fast the dogs for 16 hours prior to the start of the study, then dose the fasted dogs with vehicle (1% HEC, 0.25%, Tween 80, Antifoam) or one of the test compounds. Bleed the dogs one hour after dosing, (0.5 ml from the jugular vein) for a time 0 sample. Dose the dogs with olive oil (Sigma Catalog#: O-1514, 5 ml/kg) immediately after collection of the time 0 sample. Collect samples into an EDTA tube on ice at 1.5, 2, 3, 5, 7, and 9 hrs post compound/vehicle dosing. […]
The analyte is the [M+NH4]+ ion of TAG 18:1 18:1 18:1, which has a mass of 902.8 m/z; the internal standard is D5 TAG 16:0 16:0 16:0, which has a mass of 829.8 m/z. […] The percent inhibition of plasma triglyceride is calculated as follows: the (oil bolus group mean of net TAG AUC−oil bolus group mean of net TAG AUC with compound treatment/oil bolus group mean of net TAG AUC)*100. […]

[3] = biological target: T1, human MGAT-2; assay: MGAT-2 Cell Assay (Caco-2 cells stably transfected with human MGAT-2, HDG substrate, LC-MS); type: cell-based; settings: HDG/DOPC
Experimental: The inhibitory activity of compounds against human MGAT-2 in a cell environment is evaluated in this assay. Caco-2 is a human colon carcinoma cell line and is often used as a model for intestinal epithelial cells. […] A MAG analogue, 2-O-Hexadecylglycerol (HDG), is utilized to detect cellular MGAT-2 activity, because HDG is not be hydrolyzed and the resulting product is readily monitored by mass spectrometry. The substrate is delivered to cells using phospholipid vesicles.
Seed the Caco2 cells onto 100 mm dishes to be 80% confluent after 24 hours in complete media (3/1 DMEM: F12+10% FBS+20 mM HEPES+gentamicin). Transfect the cells with hMGAT-2 plasmid (MGAT-2-pCDNA3.1-Hygro) using Lipofectamine 2000 (Invitrogen). After a 6 hour exposure to the transfection mixture, wash the cells 3× in PBS and then add media. Incubate the cells for an additional 18 hours incubation, trypsinize the cells and serially dilute them into 100 mm dishes. Added complete media+400 μg/ml hygromycin and incubate until clones appear. Isolate and transfer the clones into 24 well dishes and grow to confluency. Prepare the RNAs from these clones using a Qiagen RNAeasy kit. Perform Taqman analysis using an ABI inventoried assay (HS00228262) on a 7900 Sequence Detection System (ABI). Analyze the lysates from these clones western blot analysis using a goat polyclonal antibody (Santa Cruz, SC-32392 to confirm human MGAT-2 expression of a 38 Kdal protein corresponding to MGAT-2.
Mix 2-O-hexadecylglycerol (“HDG”, Biosynth Chemistry & Biology, # H-1806, 562.7 μl of 20 mg/ml) and DOPC (14.3 ml of 20 mg/ml) in a glass tube; dry first under N2 gas; and then under vacuum for additional 30 minutes. Add 20 ml of buffer (150 mM Tris-Cl pH 7.4, 250 mM Sucrose, 1 mM EDTA) to the dried HDG/DOPC mixture while sonicating until the solution becomes clear. Plate the Caco2 cells into a poly-D-lysine coated 96-well plate (the “Cell Plate”) at 37° C., 5% CO2 overnight. Remove the growth media and pretreat the cells with the test compound in DMEMF12 (3:1) media (GIBCO 93-0152DK) containing 2% BSA (Sigma) for 30 minutes. Treat the cells with one test compound in 2% BSA DMEMF12 (3:1) media containing 40 μM of oleic acid and 800 μM of 8.9% HDG/DOPC for 4 hours. Trypsinize the cells with 50 μl of trypsin and add 50 μl of PBS. Immediately freeze the cells on dry ice and store at −20° C. for LC-MS analysis. Extract the cells with chloroform/methanol as follows transfer the cells to a 2 ml Plate; wash the Cell Plate with 200 μL methanol and then transfer the methanol wash to the 2 ml Plate; wash the Cell Plate again with 200 μL PBS and transfer the PBS wash to the 2 ml Plate. Add chloroform (400 μL) with internal standard (19.52 ng/mL) DAG (15:0,15:0 (Sigma)), D5-TAG (39.03 ng/mL) CDN (16,16,16) to the 2 mL Plate. […]

[4] = Caco-2 cells expressing human MGAT-2, 4 hours, read-out: Basal Triglyceride Caco 2 Relative IC50

| SMILES | IC50 [1] | inhibition of TAG absorption (percent inhibition of net plasma TAG AUC) ([2]; dosed at 10 mg/kg) | inhibition of TAG absorption ([2]; dosed at 30 mg/kg) | IC50 ([3]; Basal Triglyceride Caco 2 Relative IC50, Caco-2 cells expressing human MGAT-2, 4 hours) | IC50 [3, 4] |
| --- | --- | --- | --- | --- | --- |
| CC(C)(C)C1CCN(Cc2ccc([C@H](NS(C)(=O)=O)C(F)(F)F)cc2)CC1.Cl [Example 1, N-[(1S)-1-[4-[(4-tert-Butylpiperidin-1-yl)methyl]phenyl]-2,2,2-trifluoro-ethyl]methanesulfonamide hydrochloride] | < 12 nM | 69% | completely inhibited | 58.2 nM |  |
| CC(C)(C)C1CCN(Cc2ccc([C@H](NS(C)(=O)=O)C(F)(F)F)cc2)CC1 [Example 2, N-[(1S)-1-{4-[(4-tert-butylpiperidin-1-yl)methyl]phenyl}-2,2,2-trifluoroethyl]methanesulfonamide phosphoric acid] |  |  |  |  | 102 nM |
| CS(=O)(=O)N[C@@H](c1ccc(CN2CCC(c3ccc(F)cc3)CC2)cc1)C(F)(F)F [Example 4, N-[(1S)-2,2,2-trifluoro-1-(4-{[4-(4-fluorophenyl)piperidin-1-yl]methyl}phenyl)ethyl]methanesulfonamide hydrochloride] |  |  |  |  | 17.7 nM |
| C[C@@H](NS(C)(=O)=O)c1ccc(CN2CCC(c3ccc(F)cc3)CC2)cc1 [Example 5, N-[(1R)-1-(4-{[4-(4-fluorophenyl)piperidin-1-yl]methyl}phenyl)ethyl]methanesulfonamide hydrochloride] |  |  |  |  | 64.2 nM |
